Results on 11 compounds are retold here after US20260250290A1 (BRISTOL-MYERS SQUIBB COMPANY, priority 2023, published 2026).

Each structure is given as a SMILES string.

The target of this assay is T1, SGK1 (Homo sapiens, UniProt O00141).
T1 sequence (O00141 1-431): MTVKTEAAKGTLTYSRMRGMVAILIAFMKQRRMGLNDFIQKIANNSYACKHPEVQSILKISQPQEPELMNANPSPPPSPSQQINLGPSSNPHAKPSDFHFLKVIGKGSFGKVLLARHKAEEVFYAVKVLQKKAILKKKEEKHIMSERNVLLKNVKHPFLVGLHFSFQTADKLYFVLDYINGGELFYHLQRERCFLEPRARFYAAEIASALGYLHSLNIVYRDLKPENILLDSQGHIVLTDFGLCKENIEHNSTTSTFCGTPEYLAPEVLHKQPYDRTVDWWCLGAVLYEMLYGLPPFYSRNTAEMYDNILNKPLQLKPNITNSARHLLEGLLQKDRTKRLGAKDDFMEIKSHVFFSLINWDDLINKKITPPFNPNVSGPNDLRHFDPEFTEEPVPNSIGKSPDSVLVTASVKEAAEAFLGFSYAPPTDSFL
Briefly: SGK1 inhibition Assay B (Echo mass spectrometry of phosphorylated peptide product). The note with it: 60 min at room temperature. The assay is classed as biochemical.
Method: 20 μl of 2 nM SGK1 were added in 20 mM Hepes+10 mM MgCl2+0015% Brij-35+4 mM DTT+0.05 mg/ml BSA and the reaction incubated for 60 min at room temperature. The enzymatic reaction was quenched by addition 10 μl of 1% Formic Acid+150 nM Internal Standard: FITC-(Ahx)KKRNRR(pS)VA^—OH (final concentration). The plates are spun down at 3700 RPM for 10 minutes to remove all precipitate. Samples were loaded on to the Sciex Echo Mass Spec attached to a Sciex 6500 equipped with ESI and was used to analyze the phosphorylated peptide product. MRM transition of product and internal standard were monitored at m/z 755 to 937.5 and m/z 757.7 to 941.3 respectively. Peak area of analyte was normalized with internal standard.
Dose response curves were generated to determine the concentration required for inhibiting 50% of the enzyme activity. Compounds were dissolved at 10 mM in dimethylsulfoxide (DMSO) and evaluated at eleven concentrations.
The compound `CC(=O)N1CC=C(c2cc(N3CCC[C@@H](NC(=O)c4sc(C#N)cc4O[C@@H]4C[C@H]5CC[C@@H](C4)N5C)C3)c3c(N)ncnn23)C1` [Example 920, N—((R)-1-(7-(1-acetyl-2,5-dihydro-1H-pyrrol-3-yl)-4-aminopyrrolo[2,1-f][1,2,4]triazin-5-yl)piperidin-3-yl)-5-cyano-3-(((1R,3s,5S)-8-methyl-8-azabicyclo[3.2.1]octan-3-yl)oxy)thiophene-2-carboxamide] gave an IC50 of 2 nM. This counts as single-digit nanomolar.
The figure for `CCN1CCC(Oc2nc(C)sc2C(=O)N[C@@H]2CCCN(c3cc(-c4ccc(C(N)=O)c(F)c4)n4ncnc(N)c34)C2)CC12CCC2` (some centres unmarked) [Example 982] is 6 nM.
With `Cc1nccc(-c2cc(N3CCC[C@@H](NC(=O)c4sc(C)nc4O[C@H]4CC[C@@H](NC(C)C)CC4)C3)c3c(N)ncnn23)n1` [Example 1036, N—((R)-1-(4-amino-7-(2-methylpyrimidin-4-yl)pyrrolo[2,1-f][1,2,4]triazin-5-yl)piperidin-3-yl)-4-(((1S,4S)-4 (isopropylamino)cyclohexyl)oxy)-2-methylthiazole-5-carboxamide], inhibition was half-maximal at 0.1 nM (IC50).
Turning to `CN1CCN(c2nccc(C(=O)N[C@@H]3CCCN(c4cc(-c5cc(F)c(-n6cnnn6)c(F)c5)n5ncnc(N)c45)C3)n2)CC1` [Example 854], it took 1 nM to reach half-maximal inhibition (IC50).
With `Nc1ncnn2c(-c3ccc(=O)n(CC(F)F)n3)cc(N3CCC[C@@H](NC(=O)c4sc(Cl)cc4O[C@@H]4C[C@H]5CCC[C@@H](C4)N5CCO)C3)c12` [Example 972, N—((R)-1-(4-amino-7-(1-(2,2-difluoroethyl)-6-oxo-1,6-dihydropyridazin-3-yl)pyrrolo[2,1-f][1,2,4]triazin-5-yl)piperidin-3-yl)-5-chloro-3-(((1R,3s,5S)-9-(2-hydroxyethyl)-9-azabicyclo[3.3.1]nonan-3-yl)oxy)thiophene-2-carboxamide], the midpoint of inhibition, the IC50, lay at 2 nM. Against the preceding compound, the IC50 is about 2-fold higher.
The compound `Cc1nc(OC2CCC(N3CCC3)CC2)c(C(=O)N[C@@H]2CCCN(c3cc(-c4ccc(C(N)=O)c(F)c4)n4ncnc(N)c34)C2)s1` (single isomer, unassigned) [Example 943] came in with a half-inhibitory concentration (IC50) of 2 nM.
`CC(C)N1CC2(CN(c3cccc(C(=O)N[C@@H]4CCCN(c5cc(-c6ccc(S(C)(=O)=O)c(F)c6)n6ncnc(N)c56)C4)n3)C2)C1` [Example 833, (R)-N-(1-(4-amino-7-(3-fluoro-4-(methylsulfonyl)phenyl)pyrrolo[2,1-f][1,2,4]triazin-5-yl)piperidin-3-yl)-6-(6-isopropyl-2,6-diazaspiro[3.3]heptan-2-yl)picolinamide]: the midpoint of inhibition, the IC50, lay at 9 nM. This IC50 is about 4.5-fold higher than that of the compound before.
`CC(=O)N1CC=C(c2cc(N3CCC[C@@H](NC(=O)c4sc(Cl)cc4OC4C[C@@H]5CN(C)C[C@@H]5C4)C3)c3c(N)ncnn23)C1` (stereo partly drawn) [Example 958, N—((R)-1-(7-(1-acetyl-2,5-dihydro-1H-pyrrol-3-yl)-4-aminopyrrolo[2,1-f][1,2,4]triazin-5-yl)piperidin-3-yl)-5-chloro-3-(((3aR,6aS)-2-methyloctahydrocyclopenta[c]pyrrol-5-yl)oxy) thiophene-2-carboxamide] registered a half-maximal inhibitory concentration (IC50) of 2 nM.
Compound `CC(=O)N1CC=C(c2cc(N3CCC[C@@H](NC(=O)c4sc(Cl)cc4OC4CCC(N5CCOCC5)CC4)C3)c3c(N)ncnn23)C1` (single isomer, unassigned; isomer 1) [Example 936] registered a concentration for half-maximal inhibition (IC50) of 2 nM.
Take `Cc1nc(OC2CC(C)(C)N(C)C(C)(C)C2)c(C(=O)N[C@@H]2CCCN(c3cc(-c4ccc(-n5cnnn5)c(F)c4)n4ncnc(N)c34)C2)s1` [Example 965, (R)—N-(1-(4-amino-7-(3-fluoro-4-(1H-tetrazol-1-yl)phenyl)pyrrolo[2,1-f][1,2,4]triazin-5-yl)piperidin-3-yl)-2-methyl-4-((1,2,2,6,6-pentamethylpiperidin-4-yl)oxy) thiazole-5-carboxamide]: the IC50 came to 3 nM.
`COC(=O)N1CC=C(c2cc(N3CCC[C@@H](NC(=O)c4sc(C)nc4OC4CC5CC(C4)N(C(C)C)C5)C3)c3c(N)ncnn23)C1` (single isomer, unassigned) [Example 953] had an IC50 of 7 nM.
